Data taken from patent US20230114728A1 (Venatorx Pharmaceuticals, Inc., priority 2019, published 2023).
pEC50: −log10 of the molar value. In brackets after ≈: the same amount, converted by molar mass.

Legend:
P. aeruginosa PBP3 = molecular target: T1, P. aeruginosa PBP3 (Pseudomonas aeruginosa, UniProt G3XD46); assay: Bocillin-FL fluorescence polarization competition binding assay, P. aeruginosa PBP3; details: fluorescence polarization competition binding assay using Bocillin-FL
T1 construct: made in house
T1 sequence (G3XD46 whole entry): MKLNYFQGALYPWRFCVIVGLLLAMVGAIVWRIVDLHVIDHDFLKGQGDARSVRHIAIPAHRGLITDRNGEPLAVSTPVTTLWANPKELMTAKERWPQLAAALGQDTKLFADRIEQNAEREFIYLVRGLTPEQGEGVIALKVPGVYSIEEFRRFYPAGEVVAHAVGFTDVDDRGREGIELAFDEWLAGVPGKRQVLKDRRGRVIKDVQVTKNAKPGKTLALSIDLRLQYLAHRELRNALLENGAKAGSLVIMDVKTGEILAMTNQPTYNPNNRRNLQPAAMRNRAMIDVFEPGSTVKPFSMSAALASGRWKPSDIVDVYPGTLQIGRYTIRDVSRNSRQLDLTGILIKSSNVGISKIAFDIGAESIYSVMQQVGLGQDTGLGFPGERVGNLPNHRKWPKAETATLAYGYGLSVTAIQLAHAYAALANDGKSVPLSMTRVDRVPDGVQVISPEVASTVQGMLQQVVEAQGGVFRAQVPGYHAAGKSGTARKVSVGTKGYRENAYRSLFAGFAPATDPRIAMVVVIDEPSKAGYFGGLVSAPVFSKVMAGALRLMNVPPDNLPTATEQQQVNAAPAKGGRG
Outline: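 Binding of boronic acid inhibitors to purified Pseudomonas aeruginosa (PA01) PBP3 was measured by fluorescence polarization competition with Bocillin-FL, a fluorescent penicillin V. Reactions of 80 μl contained 0.75 μM PBP3 and 0.1 μM Bocillin-FL in 50 mM Hepes (pH 8.0), 300 mM NaCl and 5% (v/v) glycerol, in black 384-well plates. FP (Excitation 490 nm, Emission 520 nm) was read for up to 60 minutes. EC50 is the concentration that halves PBP-bound Bocillin-FL.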

N. gonorrhoeae FA1090 = assay: Liquid broth MIC in Fastidious broth; format: cell-based; details: Neisseria gonorrhoeae; N. gonorrhoeae strain FA1090; Fastidious broth; read-out: Minimum Inhibitory Concentration, N. gonorrhoeae FA1090
Outline: (§1)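 Colonies were swabbed from chocolate agar after 24 h growth and standardised by optical density at 600 nm. Compounds were serially diluted twofold in Fastidious broth, and bacteria added to give 5×10^5 CFU/mL. After about 24 h at 36 °C in 5% CO2, the lowest concentration allowing under 10% growth was taken as MIC.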

N. gonorrhoeae WHO G = assay: Liquid broth MIC in Fastidious broth; format: cell-based; details: Neisseria gonorrhoeae; N. gonorrhoeae strain WHO G; Fastidious broth; read-out: Minimum Inhibitory Concentration, N. gonorrhoeae WHO G
Outline: as §1

N. gonorrhoeae H041 = assay: Liquid broth MIC in Fastidious broth; format: cell-based; details: Neisseria gonorrhoeae, H041, read-out: Minimum Inhibitory Concentration, N. gonorrhoeae H041
Outline: as §1

N. gonorrhoeae WHO L = assay: Liquid broth MIC in Fastidious broth; format: cell-based; details: Neisseria gonorrhoeae; N. gonorrhoeae strain WHO L; Fastidious broth; read-out: Minimum Inhibitory Concentration, N. gonorrhoeae WHO L
Outline: as §1

[1] = test system: N. gonorrhoeae ATCC 49226; assay: Liquid broth MIC in Fastidious broth; format: cell-based; details: Neisseria gonorrhoeae, ATCC49226; N. gonorrhoeae strain ATCC 49226; Fastidious broth; read-out: Minimum Inhibitory Concentration, N. gonorrhoeae ATCC 49226
Outline: as §1

N. gonorrhoeae WHO K = assay: Liquid broth MIC in Fastidious broth; format: cell-based; details: Neisseria gonorrhoeae, read-out: Minimum Inhibitory Concentration, N. gonorrhoeae WHO K
Outline: as §1

E. coli K12 PBP3 = molecular target: T2, E. coli K12 PBP3 (Escherichia coli, UniProt P0AD68); assay: biochemical; format: binding
T2 construct: made in house
T2 sequence (P0AD68 1-577): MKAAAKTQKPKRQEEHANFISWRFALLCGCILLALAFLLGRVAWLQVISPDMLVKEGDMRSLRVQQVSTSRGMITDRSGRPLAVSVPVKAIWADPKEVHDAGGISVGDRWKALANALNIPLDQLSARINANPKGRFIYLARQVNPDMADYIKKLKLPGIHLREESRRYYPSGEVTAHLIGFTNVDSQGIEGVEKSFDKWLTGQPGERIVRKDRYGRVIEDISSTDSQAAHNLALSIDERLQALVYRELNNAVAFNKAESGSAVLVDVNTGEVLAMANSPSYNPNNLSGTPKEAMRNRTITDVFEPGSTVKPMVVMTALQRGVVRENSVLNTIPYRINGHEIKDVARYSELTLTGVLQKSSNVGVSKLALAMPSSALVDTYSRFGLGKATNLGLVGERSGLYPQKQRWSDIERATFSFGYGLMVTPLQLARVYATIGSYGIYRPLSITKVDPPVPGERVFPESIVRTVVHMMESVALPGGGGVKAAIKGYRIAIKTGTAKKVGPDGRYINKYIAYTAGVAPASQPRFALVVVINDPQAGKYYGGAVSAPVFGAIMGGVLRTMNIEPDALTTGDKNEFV
Outline: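 Fluorescence polarization (ex 490/em 520 nm) competition of inhibitors against Bocillin-FL at 0.1 μM, read up to 60 min. Final PBP levels: E. coli PBP3 1.5 μM; A. baumannii PBP2 2.5 μM, PBP3 0.2 μM in Tris pH 8.0/NaCl/glycerol/Tween 20; N. gonorrhoeae PBP2 […] in Hepes pH 8.0/NaCl/glycerol. EC50 = concentration halving PBP-bound Bocillin-FL.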

SMILES	P. aeruginosa PBP3 Potency (P. aeruginosa PBP3)	MIC (N. gonorrhoeae FA1090)	MIC (N. gonorrhoeae WHO G)	MIC (N. gonorrhoeae H041)	MIC (N. gonorrhoeae WHO L)	MIC [1]	MIC (N. gonorrhoeae WHO K)	pEC50 (E. coli K12 PBP3)
NCCN1CCN(C(=O)N[C@@H](C(=O)N[C@H]2Cc3cccc(C(=O)O)c3OB2O)c2cc(Cl)c(O)cc2Cl)C(=O)C1=O [Example 90, (R)-3-((R)-2-(4-(2-aminoethyl)-2,3-dioxopiperazine-1-carboxamido)-2-(2,5-dichloro-4-hydroxyphenyl)acetamido)-2-hydroxy-3,4-dihydro-2H-benzo[e][1,2]oxaborinine-8-carboxylic acid]	D (D represents a potency <10 μM)	4 to 8 µg/mL (≈ 6.58 to 13.2 µM)	16 to 32 µg/mL (≈ 26.3 to 52.6 µM)	> 64 µg/mL	> 64 µg/mL	> 64 µg/mL	> 64 µg/mL	> 4.52
CCN1CCN(C(=O)NC(C(=O)N[C@H]2Cc3cccc(C(=O)O)c3OB2O)c2ccc(C(=O)O)c(OC)c2)C(=O)C1=O (stereo partly drawn) [Example 48, (3R)-3-(2-(4-carboxy-3-methoxyphenyl)-2-(4-ethyl-2,3-dioxopiperazine-1-carboxamido)acetamido)-2-hydroxy-3,4-dihydro-2H-benzo[e][1,2]oxaborinine-8-carboxylic acid]	D (D represents a potency <10 μM)	0.25 to 0.5 µg/mL (≈ 0.429 to 0.859 µM)	1 to 2 µg/mL (≈ 1.72 to 3.43 µM)	16 to 32 µg/mL (≈ 27.5 to 55 µM)	16 to 32 µg/mL (≈ 27.5 to 55 µM)	4 to 8 µg/mL (≈ 6.87 to 13.7 µM)	4 to 8 µg/mL (≈ 6.87 to 13.7 µM)	> 4.52
CCN1CCN(C(=O)NC(C(=O)N[C@H]2Cc3cccc(C(=O)O)c3OB2O)c2ncc(C(=O)O)cc2F)C(=O)C1=O (stereo partly drawn) [Example 20, 6-(2-(((R)-8-carboxy-2-hydroxy-3,4-dihydro-2H-benzo[e][1,2]oxaborinin-3-yl)amino)-1-(4-ethyl-2,3-dioxopiperazine-1-carboxamido)-2-oxoethyl)-5-fluoronicotinic acid]	D (D represents a potency <10 μM)	1 to 2 µg/mL (≈ 1.75 to 3.5 µM)	4 to 8 µg/mL (≈ 7 to 14 µM)	16 to 32 µg/mL (≈ 28 to 56 µM)	> 64 µg/mL	4 to 8 µg/mL (≈ 7 to 14 µM)	16 to 32 µg/mL (≈ 28 to 56 µM)	> 4.52
CCN1CCN(C(=O)NC(C(=O)N[C@H]2Cc3cccc(C(=O)O)c3OB2O)c2cc(O)ccc2O)C(=O)C1=O (stereo partly drawn) [Example 77, (3R)-3-(2-(2,5-dihydroxyphenyl)-2-(4-ethyl-2,3-dioxopiperazine-1-carboxamido)acetamido)-2-hydroxy-3,4-dihydro-2H-benzo[e][1,2]oxaborinine-8-carboxylic acid]	B (B represents a potency between 30 μM and 500 μM inclusive)	4 to 8 µg/mL (≈ 7.4 to 14.8 µM)	16 to 32 µg/mL (≈ 29.6 to 59.2 µM)	> 64 µg/mL	> 64 µg/mL	16 to 32 µg/mL (≈ 29.6 to 59.2 µM)	> 64 µg/mL	3.30 to 4.52
CCN1CCN(C(=O)NC(C(=O)N[C@H]2Cc3cccc(C(=O)O)c3OB2O)c2cccc(O)c2)C(=O)C1=O (stereo partly drawn) [Example 68, (3R)-3-(2-(4-ethyl-2,3-dioxopiperazine-1-carboxamido)-2-(3-hydroxyphenyl)acetamido)-2-hydroxy-3,4-dihydro-2H-benzo[e][1,2]oxaborinine-8-carboxylic acid]	D (D represents a potency <10 μM)	0.25 to 0.5 µg/mL (≈ 0.477 to 0.954 µM)	4 to 8 µg/mL (≈ 7.63 to 15.3 µM)	16 to 32 µg/mL (≈ 30.5 to 61 µM)	16 to 32 µg/mL (≈ 30.5 to 61 µM)	4 to 8 µg/mL (≈ 7.63 to 15.3 µM)	16 to 32 µg/mL (≈ 30.5 to 61 µM)	3.30 to 4.52
CCN1CCN(C(=O)NC(C(=O)N[C@H]2Cc3cccc(C(=O)O)c3OB2O)c2cccc([N+](=O)[O-])c2)C(=O)C1=O (stereo partly drawn) [Example 75, (3R)-3-(2-(4-ethyl-2,3-dioxopiperazine-1-carboxamido)-2-(3-nitrophenyl)acetamido)-2-hydroxy-3,4-dihydro-2H-benzo[e][1,2]oxaborinine-8-carboxylic acid]	D (D represents a potency <10 μM)	0.25 to 0.5 µg/mL (≈ 0.452 to 0.904 µM)	4 to 8 µg/mL (≈ 7.23 to 14.5 µM)	> 64 µg/mL	> 64 µg/mL	4 to 8 µg/mL (≈ 7.23 to 14.5 µM)	> 64 µg/mL	3.30 to 4.52
NCCCN1CCN(C(=O)N[C@@H](C(=O)N[C@H]2Cc3ccc(F)c(C(=O)O)c3OB2O)c2c(F)cc(O)c(O)c2F)C(=O)C1=O (single isomer, unassigned) [Example 41]	D (D represents a potency <10 μM)	4 to 8 µg/mL (≈ 6.42 to 12.8 µM)	16 to 32 µg/mL (≈ 25.7 to 51.3 µM)	> 64 µg/mL	> 64 µg/mL	16 to 32 µg/mL (≈ 25.7 to 51.3 µM)	> 64 µg/mL	> 4.52
